# From ChEMBL document CHEMBL4651402, “Screening of ~5500 FDA-approved drugs and clinical candidates for anti-SARS-CoV-2 activity” (2021)
# How the values were obtained:
# in vitro = details: chlorocebus sabaeus, Vero E6 (Vero C1008) cells
# SARS-CoV-2 [1] = assay: microbe, parasite or virus in culture; details: Severe acute respiratory syndrome coronavirus 2, Vero C1008, 48 h
# SARS-CoV-2 [2] = assay: microbe, parasite or virus in culture; format: functional, organism-based, Chlorocebus sabaeus, Vero C1008; details: Severe acute respiratory syndrome coronavirus 2, Vero C1008, 48 h
SMILES,CC50 at 48 h (in vitro; CC50),CC50 at 48 h (in vitro; pCC50),IC50 (SARS-CoV-2 [1]),IC50 (SARS-CoV-2 [1]; read-out: pIC50 (converted)),IC50 (SARS-CoV-2 [2]; read-out: IC50),IC50 (SARS-CoV-2 [2]; read-out: pIC50 (converted))
CC(C)(C)NC(=O)[C@@H]1C[C@@H]2CCCC[C@@H]2CN1C[C@@H](O)[C@H](Cc1ccccc1)NC(=O)[C@H](CC(N)=O)NC(=O)c1ccc2ccccc2n1,18.2 µM,18.2 µM,> 100 µM,> 100 µM,> 100 µM,> 100 µM
COc1cc2c3cc1Oc1cc(ccc1O)C[C@@H]1c4c(cc(OC)c(O)c4Oc4ccc(cc4)C[C@H]3N(C)CC2)CCN1C,11.5 µM,11.5 µM,> 10 µM,> 10 µM,~5.37 µM,~5.37 µM
COc1ccc2nc3c(c(N)c2c1)CCCC3,47.9 µM,47.9 µM,~11.5 µM,~11.5 µM,> 25.1 µM,> 25.1 µM
c1ccc(CN(CCN(Cc2ccccn2)Cc2ccccn2)Cc2ccccn2)nc1,1.93 µM,1.91 µM,> 3.09 µM,> 3.09 µM,> 100 µM,> 100 µM
CNCCC=C1c2ccccc2C=Cc2ccccc21,23.4 µM,23.4 µM,> 50.1 µM,> 50.1 µM,> 50.1 µM,> 50.1 µM
Cc1[nH]c(/C=C2/C(=O)Nc3ccccc32)c(C)c1CCC(=O)O,> 50.1 µM,> 50.1 µM,~2 µM,~2 µM,> 50.1 µM,> 50.1 µM
O=C(NC1CN2CCC1CC2)c1cc(Cl)cc2c1OC1CCCCC21 (stereo not given),21.6 µM,21.4 µM,7.94 µM,7.94 µM,> 25.1 µM,> 25.1 µM
C[C@H](Oc1cc(-c2cnn(C3CCNCC3)c2)cnc1N)c1c(Cl)ccc(F)c1Cl,4.42 µM,4.37 µM,6.76 µM,6.76 µM,~4.47 µM,~4.47 µM
COC(=O)N[C@H](C(=O)N1CCC[C@H]1c1ncc(-c2ccc(-c3ccc(-c4cnc([C@@H]5CCCN5C(=O)[C@@H](NC(=O)OC)C(C)C)[nH]4)cc3)cc2)[nH]1)C(C)C,~19.7 µM,~19.5 µM,> 100 µM,> 100 µM,> 100 µM,> 100 µM
CC(C)[C@H](N/C(=N\S(=O)(=O)c1ccc(Cl)cc1)N1C[C@@H](c2ccccc2)C(c2ccc(Cl)cc2)=N1)C(N)=O,16 µM,15.8 µM,> 100 µM,> 100 µM,> 50.1 µM,> 50.1 µM
COc1ccc2c(c1)N(CC(C)CN(C)C)c1ccccc1S2 (stereo not given),22.9 µM,22.9 µM,> 100 µM,> 100 µM,> 100 µM,> 100 µM
c1ccc(C(O[C@H]2CCCN(CCc3ccc4c(c3)OCO4)C2)c2ccccc2)cc1,> 100 µM,> 100 µM,> 100 µM,> 100 µM,87.1 µM,87.1 µM
COc1cc2c3cc1Oc1c(OC)c(OC)cc4c1[C@@H](Cc1cccc(c1)Oc1ccc(c(O)c1)C[C@@H]3N(C)CC2)N(C)CC4,10.2 µM,10.2 µM,8.51 µM,8.51 µM,> 6.31 µM,> 6.31 µM
CN1C2CCC1CC(OC(c1ccccc1)c1ccc(Cl)cc1)C2 (stereo not given),8.13 µM,8.13 µM,9.77 µM,9.77 µM,> 100 µM,> 100 µM
COC(=O)N[C@H](C(=O)N1CCC[C@H]1c1nc(-c2ccc3cc(-c4ccc5[nH]c([C@@H]6CCCN6C(=O)[C@@H](NC(=O)OC)C(C)C)nc5c4)ccc3c2)c[nH]1)C(C)C,12.7 µM,12.6 µM,> 100 µM,> 100 µM,> 100 µM,> 100 µM
CCC1CN2CCC1CC2C(O)c1ccnc2ccc(OCCC(C)C)cc12 (stereo not given),11.4 µM,11.2 µM,> 100 µM,> 100 µM,> 100 µM,> 100 µM
COc1ccc(C#Cc2ccccc2)c(CCC(C)N(C)CCc2ccc(OC)c(OC)c2)c1 (stereo not given),4.84 µM,4.79 µM,4.27 µM,4.27 µM,> 100 µM,> 100 µM
COc1ccc([C@@H](Cc2ccncc2)c2ccccc2)cc1OC1CCCC1,23.4 µM,23.4 µM,> 100 µM,> 100 µM,> 100 µM,> 100 µM
CCC(CC)COC(=O)[C@H](C)N[P@](=O)(OC[C@H]1O[C@@](C#N)(c2ccc3c(N)ncnn23)[C@H](O)[C@@H]1O)Oc1ccccc1,95.5 µM,95.5 µM,~4.64 µM,~4.68 µM,~2.6 µM,~2.57 µM
Cc1ccc(CCCO)c(NCc2ccc3nc(NCCCN4CCOCC4)n(Cc4nc(C)ccc4O)c3c2)c1,9.33 µM,9.33 µM,> 20 µM,> 20 µM,> 20 µM,> 20 µM

SMILES,CC50 at 48 h (in vitro; CC50),CC50 at 48 h (in vitro; pCC50),IC50 (SARS-CoV-2 [1]),IC50 (SARS-CoV-2 [1]; read-out: pIC50 (converted)),IC50 (SARS-CoV-2 [2]; read-out: IC50),IC50 (SARS-CoV-2 [2]; read-out: pIC50 (converted))
O=C1NCN(c2ccccc2)C12CCN(CCCC(c1ccc(F)cc1)c1ccc(F)cc1)CC2,7 µM,6.92 µM,> 100 µM,> 100 µM,> 100 µM,> 100 µM
CC(=O)[C@@]12OC(C)(c3ccccc3)O[C@@H]1CC1C3CCC4=CC(=O)CCC4(C)C3CCC12C (stereo not given in full),15.5 µM,15.5 µM,> 100 µM,> 100 µM,> 12.6 µM,> 12.6 µM
CN1CCC(c2cc3cc(Cl)ccc3o2)CC1,34.7 µM,34.7 µM,17.2 µM,17 µM,> 100 µM,> 100 µM
CCN(CC)CCCNc1cc(OC)cc2cccnc12,> 100 µM,> 100 µM,24.6 µM,24.5 µM,> 100 µM,> 100 µM
CCN(CCO)CCC[C@H](C)Nc1ccnc2cc(Cl)ccc12,> 50.1 µM,> 50.1 µM,12.7 µM,12.6 µM,~18.8 µM,~18.6 µM
COC(=O)C1C2CC3c4[nH]c5cc(OC)ccc5c4CCN3CC2CC(OC(=O)/C=C/c2cc(OC)c(OC)c(OC)c2)C1OC (stereo not given),5.5 µM,5.5 µM,> 50.1 µM,> 50.1 µM,> 100 µM,> 100 µM
O=C(NO)c1ccc(C2=Nc3ccccc3Oc3ccccc32)cc1,1.55 µM,1.55 µM,> 100 µM,> 100 µM,> 100 µM,> 100 µM
CCOC(=O)Oc1c(OC)cc(C(=O)OC2CC3CN4CCc5c([nH]c6cc(OC)ccc56)C4CC3C(C(=O)OC)C2OC)cc1OC (stereo not given),8.91 µM,8.91 µM,> 100 µM,> 100 µM,> 100 µM,> 100 µM
COC(=O)C1C2CC3c4[nH]c5ccccc5c4CCN3CC2CC(OC(=O)c2cc(OC)c(OC)c(OC)c2)C1OC (stereo not given),11.5 µM,11.5 µM,> 20 µM,> 20 µM,> 25.1 µM,> 25.1 µM
CN(C)CC/C=C1\c2ccccc2OCc2c1oc1ccccc21,12.2 µM,12 µM,18.2 µM,18.2 µM,> 100 µM,> 100 µM
Cc1ccc(-c2nc3c(nc2-c2ccc(C)cc2)N(CCCCCCC(=O)O)CCC3)cc1,50.1 µM,50.1 µM,17.4 µM,17.4 µM,~16.6 µM,~16.6 µM
C#CC1(OC(C)=O)CCC2C3CCC4=C/C(=N/O)CCC4C3CCC21CC (stereo not given),20.9 µM,20.9 µM,> 100 µM,> 100 µM,> 100 µM,> 100 µM
CC(CN(C)C)CN1c2ccccc2Sc2ccccc21 (stereo not given),21.4 µM,21.4 µM,17.4 µM,17.4 µM,> 25.1 µM,> 25.1 µM
C#C[C@]1(O)CCC2C3CCc4cc(OC5CCCC5)ccc4C3CCC21C (stereo not given in full),7.59 µM,7.59 µM,8.71 µM,8.71 µM,> 100 µM,> 100 µM
CN1CCC[C@@H](CN2c3ccccc3Sc3ccccc32)C1,11.8 µM,11.7 µM,> 20 µM,> 20 µM,> 100 µM,> 100 µM
OC(Cn1cncn1)(Cn1cnc(/C=C/c2ccc(OCC(F)(F)C(F)F)cc2)n1)c1ccc(F)cc1F (stereo not given),25.7 µM,25.7 µM,> 100 µM,> 100 µM,> 100 µM,> 100 µM
CCN(CCO)CCC[C@@H](C)Nc1ccnc2cc(Cl)ccc12,> 50.1 µM,> 50.1 µM,12.7 µM,12.6 µM,> 50.1 µM,> 50.1 µM
CC[C@H](C(=O)[C@H](C)[C@@H](O)[C@H](C)CCc1ccc(C)c(O)c1C(=O)O)[C@@H]1O[C@@](CC)([C@H]2CC[C@](O)(CC)[C@@H](C)O2)C[C@@H]1C,~5.37 µM,~5.37 µM,> 0.631 µM,> 0.631 µM,1.07 µM,1.07 µM
CC(=O)NC1(c2ccccc2)CCN(CCC(CN(C)C(=O)c2ccccc2)c2ccc(Cl)c(Cl)c2)CC1 (stereo not given),23.4 µM,23.4 µM,> 100 µM,> 100 µM,> 100 µM,> 100 µM
Cc1c(O)cccc1C(=O)N[C@@H](CSc1ccccc1)[C@H](O)CN1C[C@H]2CCCC[C@H]2C[C@H]1C(=O)NC(C)(C)C,11.2 µM,11.2 µM,5.22 µM,5.25 µM,~3.97 µM,~3.98 µM
